This is an account of results in US7732200B2, “Materials and methods for nerve grafting, selection of nerve grafts, and in vitro nerve tissue culture” (University of Florida Research Foundation, Inc., priority 2001, dated 2010).

The test system of assay [1] is CSPG. Description: CSPG neoepitope immunostaining of injured sciatic nerve after a single in vivo injection. More on the design: species or system rat. Particulars: 1 U in 2 μl injected 2 mm distal to injury; 4 days (transection) or 2 days (crush). On the procedure: Surgical procedures for nerve transection and nerve crush experiments. All surgical procedures were performed according to Institutional Animal Care and Use Committee (IACUC) approved protocols. Young adult SPRAGUE DAWLEY rats (HARLAN Indianapolis, Ind.) were deeply anesthetized with xylazine (15 mg/kg, i.m.) followed by ketamine-HCl (110 mg/kg, i.p.). Six animals received bilateral nerve crush injuries. Sciatic nerves were exposed and then crushed with firm pressure for thirty seconds with a DUMONT #5 forceps at a site 4 mm distal to the tendon of the internal obdurator. The crush site was marked with an epineurial suture. In a separate set of experiments, eight rats received bilateral sciatic nerve transection injuries using serrated scissors. The proximal and distal stumps were […] by epineurial neurorrhaphy using 9-0 ETHILON sutures. Fibrin glue (fibrinogen and thrombin) was then applied to stabilize the union. In both injury models, the right sciatic nerves were injected 2-mm distal to the injury with chondroitinase ABC (1 U in 2 μl) (high-purity, protease-free; SIGMA CHEMICAL CO., St. Louis, Mo.). Left sciatic nerves (with the same injury as the right side) were injected with vehicle alone (0.1% bovine serum albumin in PBS). […]
Immunocytochemistry. Axonal regeneration was assessed by GAP-43 immunofluorescence and digital image analysis. […]

Assay [2] deals with CSPG. The assay is described as follows: CSPG neoepitope immunolabeling of chondroitinase-treated human nerve segments. The source says: Many of the experiments described in the examples above performed using rat nerves also have been replicated using human nerve. Except where otherwise indicated, the procedures described in Examples 1 and 2 using rat nerve were also followed in Examples 6 and 7 using human nerve. Human sural and tibial nerves were obtained fresh from surgical leg amputation.
Human nerves were first examined to determine if their content of CSPG and laminin was similar to that observed in rat nerves. […] Human nerves stained for CSPG neoepitope and laminin are shown, respectively, in FIGS. 9A and 9B.

Assay [3] deals with embryonic chick DRG neurons. The assay is described as follows: Cryoculture bioassay of chondroitinase-treated acellular rat nerve segments. It is filed as cell-based. The source says: Preparation of acellular nerve grafts treated with chondroitinase: Adult (180-200 g) female SPRAGUE DAWLEY rats (HARLAN, Indianapolis, Ind.) were used as nerve donors and recipient hosts. Donor rats were anesthetized with halothane and decapitated. Sciatic nerves were exposed through a gluteal muscle-splitting incision and isolated free of underlying fascia. A 15-mm nerve segment was excised rostral to the bifurcation into common peroneal and tibial nerves. The segments were rinsed with cold sterile Ringer's solution, stabilized by pinning the ends to a thin plastic support, and transferred to a cryogenic vial. The vials were submerged in liquid nitrogen for 2 minutes and then transferred to a 37° C. water bath for 2 minutes. This freeze/thaw cycle was repeated, yielding acellular nerve grafts that were then stored in liquid nitrogen. On the day before grafting, the nerve grafts were warmed to room temperature and incubated in 100 μl phosphate buffered saline pH 7.4 (PBS) containing 2 units/ml chondroitinase ABC (SIGMA, St. Louis, Mo.) or in PBS (vehicle) only for 16 hours at 37° C. The grafts were rinsed twice with Ringer's and kept on ice prior to use. The chondroitinase ABC preparation was highly purified and stated by the manufacturer to be essentially free of protease activity.
Cryoculture bioassay. Cryoculture is a neurite outgrowth assay in which neurons are cultured directly on fresh/frozen nerve sections and was performed as described previously (Ferguson T A et al. [2000] Mol Cell Neurosci, 16:157-167). Briefly, chondroitinase- and vehicle-treated nerve segments were sectioned at 20 μm, mounted on sterile, aminopropyltriethoxysilane (APTS)-coated coverslips and stored at −20° C. until used. Where indicated, sections were treated with chondroitinase ABC (0.1 unit/ml) or vehicle (50 mM Tris-HCl, pH 8.0), containing 50 mM NaCl) for 2 h at 37° C. Purified dorsal root ganglionic (DRG) neurons from day 8 chick embryos were seeded directly on the nerve sections in a defined N2 medium (Bottenstein J E et al. [1980] Exp Cell Res 125:183-190) containing 10 ng/ml nerve growth factor. Cryoculture assays were terminated after 24 h of incubation by fixation with 100% methanol. Neuritic growth by DRG neurons was accessed by GAP-43 immunofluorescent labeling. […] Neurite lengths were measured directly using IMAGE-PRO PLUS software (MEDIA CYBERNETICS, Silver Springs, Md.). At least 250 neurons with neurites greater than one cell body (˜15 μm) were scored for each condition in each experiment.
Inactivation of inhibitory CSPG in chondroitinase-treated acellular nerve was determined by cryoculture bioassay. Embryonic chick DRG neurons were seeded onto sections of prepared nerve segments and the neurite-promoting activity was assessed by scoring neurite growth. […]

For chondroitinase ABC, in the assay on CSPG [1], the “CSPG degradation in extracellular matrix around the injection site” value is “substantially, if not completely, degraded CSPG”. For the same substance, the “CSPG side chain degradation by neoepitope labeling” value in the assay with CSPG [2] is “effectively degraded”. Further, the average neurite length in assay [3] (acellular nerve pretreated en bloc, DRG neurons 24 h) was determined as 96 μm. The “increase in neurite growth compared to the control condition” value in assay [3] (en bloc treatment vs en bloc vehicle) came to 95%. The “increase in neurite-promoting activity by post-treatment of sections” value in assay [3] (nerve treated en bloc with vehicle only, sections post-treated 0.1 unit/ml 2 h) worked out at 86%. Besides, the “effect of post-treatment on sections from en bloc treated nerve” value in assay [3] (sections of en bloc chondroitinase-treated nerve grafts) is given as “only a slight additive effect”.
